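A five-concentration, 48-hour dose response in 96-well plates underlies each endpoint, interpolated linearly between surrounding concentrations. TGI: total growth inhibition.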
Key:
Assay in all cases: NCI anticancer screen, dose series, 48 h
[1] = tested on: NCI-H23 lung
[2] = tested on: EKVX NSCLC
[3] = tested on: NCI-H226 lung
[4] = tested on: IGROV1 ovarian
[5] = tested on: NCI-H522 lung
[6] = tested on: 786-0 renal
[7] = tested on: RPMI-8226 leukemia
[8] = tested on: NCI-H460 lung
[9] = tested on: MCF7 breast
[10] = tested on: MOLT-4 leukemia
[11] = tested on: ACHN renal
[12] = tested on: HOP-92 NSCLC
[13] = tested on: HCC-2998 colon
[14] = tested on: TK-10 renal
[15] = tested on: MALME-3M melanoma
[16] = tested on: SK-OV-3 ovarian
[17] = tested on: SK-MEL-5 melanoma
[18] = tested on: SF-539 CNS
[19] = tested on: NCI/ADR-RES ovarian
[20] = tested on: K-562 leukemia
[21] = tested on: SK-MEL-2 melanoma
[22] = tested on: SF-295 CNS
[23] = tested on: MDA-N
[24] = tested on: CCRF-CEM leukemia
[25] = tested on: SN12C renal
[26] = tested on: MDA-MB-435
[27] = tested on: OVCAR-3 ovarian
[28] = tested on: HT29 colon
[29] = tested on: HCT-15 colon
[30] = tested on: A549 NSCLC
[31] = tested on: SF-268 CNS
[32] = tested on: CAKI-1 renal
[33] = tested on: MDA-MB-231 breast
[34] = tested on: OVCAR-4 ovarian
[35] = tested on: DU-145 prostate
[36] = tested on: RXF 393 renal
[37] = tested on: HS 578T breast
[38] = tested on: COLO 205 colon
[39] = tested on: HOP-62 NSCLC
[40] = tested on: M14 melanoma
[41] = tested on: T-47D breast
[42] = tested on: OVCAR-8 ovarian
[43] = tested on: HL-60(TB) leukemia
[44] = tested on: SK-MEL-28 melanoma
[45] = tested on: U251 CNS
[46] = tested on: UACC-257 melanoma
[47] = tested on: BT-549 breast
[48] = tested on: PC-3 prostate
[49] = tested on: OVCAR-5 ovarian
[50] = tested on: A498 renal
[51] = tested on: SR leukemia
[52] = tested on: HCT-116 colon
[53] = tested on: KM12 colon
[54] = tested on: UACC-62 melanoma
[55] = tested on: UO-31 renal
[56] = tested on: SNB-19 CNS
[57] = tested on: LOX IMVI melanoma
[58] = tested on: SW-620 colon
[59] = tested on: SNB-75 CNS

Compound `O=c1[nH]cc(N=Cc2cc(Cl)ccc2O)c(=O)[nH]1` has a TGI [1] greater than 100 µM, a TGI [2] greater than 100 µM and a TGI [3] of 98 µM. The TGI [4] was 52.6 µM, the TGI [5] was greater than 100 µM and the TGI [6] was 70.6 µM. The TGI [7] was 53.3 µM, the TGI [8] was greater than 100 µM and the TGI [9] was greater than 100 µM. For the same compound, the TGI [10] was 63.1 µM, the TGI [11] was 61.6 µM and the TGI [12] was 89.8 µM. It also gave a TGI [13] greater than 100 µM, a TGI [14] greater than 100 µM and a TGI [15] of 73.8 µM. For the same compound, the TGI [16] was 59.4 µM, the TGI [17] was greater than 100 µM and the TGI [18] was 7.43 µM. It also gave a TGI [19] of 53.6 µM, a TGI [20] greater than 100 µM and a TGI [21] of 64.5 µM. It also gave a TGI [22] of 42.1 µM, a TGI [23] greater than 100 µM and a TGI [24] of 19 µM. For the same compound, the TGI [25] was greater than 100 µM, the TGI [26] was greater than 100 µM and the TGI [27] was greater than 100 µM. The TGI [28] was greater than 100 µM, the TGI [29] was greater than 100 µM and the TGI [30] was greater than 100 µM. The TGI [31] was 47.3 µM, the TGI [32] was greater than 100 µM and the TGI [33] was greater than 100 µM. For the same compound, the TGI [34] was 12.3 µM, the TGI [35] was 66.8 µM and the TGI [36] was greater than 100 µM. For the same compound, the TGI [37] was greater than 100 µM, the TGI [38] was 75.7 µM and the TGI [39] was 53.7 µM. For the same compound, the TGI [40] was 48.9 µM, the TGI [41] was 60.7 µM and the TGI [42] was 76.9 µM. For the same compound, the TGI [43] was 52.6 µM, the TGI [44] was 70.1 µM and the TGI [45] was 88.2 µM. It also gave a TGI [46] greater than 100 µM, a TGI [47] of 70 µM and a TGI [48] greater than 100 µM. It also gave a TGI [49] greater than 100 µM, a TGI [50] greater than 100 µM and a TGI [51] of 24.8 µM. The TGI [52] was greater than 100 µM, the TGI [53] was greater than 100 µM and the TGI [54] was 71.7 µM. It also gave a TGI [55] greater than 100 µM and a TGI [56] greater than 100 µM.

`COc1ccc(-n2c(N)c(C#N)c(C#N)c2-c2ccco2)cc1` showed a TGI [1] greater than 100 µM, a TGI [2] greater than 100 µM and a TGI [3] greater than 100 µM. It also gave a TGI [4] greater than 100 µM, a TGI [5] greater than 100 µM and a TGI [6] greater than 100 µM. The TGI [7] was greater than 100 µM, the TGI [57] was greater than 100 µM and the TGI [9] was greater than 100 µM. For the same compound, the TGI [10] was greater than 100 µM, the TGI [11] was greater than 100 µM and the TGI [58] was greater than 100 µM. The TGI [12] was greater than 100 µM, the TGI [13] was greater than 100 µM and the TGI [14] was greater than 100 µM. It also gave a TGI [15] greater than 100 µM, a TGI [16] greater than 100 µM and a TGI [17] greater than 100 µM. The TGI [18] was greater than 100 µM, the TGI [19] was greater than 100 µM and the TGI [20] was greater than 100 µM. For the same compound, the TGI [21] was greater than 100 µM, the TGI [22] was greater than 100 µM and the TGI [23] was greater than 100 µM. For the same compound, the TGI [24] was greater than 100 µM, the TGI [25] was greater than 100 µM and the TGI [26] was greater than 100 µM. The TGI [27] was greater than 100 µM, the TGI [28] was greater than 100 µM and the TGI [29] was greater than 100 µM. It also gave a TGI [30] greater than 100 µM, a TGI [31] greater than 100 µM and a TGI [32] greater than 100 µM. The TGI [33] was greater than 100 µM, the TGI [34] was greater than 100 µM and the TGI [35] was greater than 100 µM. For the same compound, the TGI [36] was greater than 100 µM, the TGI [37] was greater than 100 µM and the TGI [38] was greater than 100 µM. For the same compound, the TGI [39] was greater than 100 µM, the TGI [40] was greater than 100 µM and the TGI [41] was greater than 100 µM. For the same compound, the TGI [42] was greater than 100 µM, the TGI [43] was greater than 100 µM and the TGI [59] was greater than 100 µM. The TGI [45] was greater than 100 µM, the TGI [46] was greater than 100 µM and the TGI [47] was greater than 100 µM. For the same compound, the TGI [48] was greater than 100 µM, the TGI [49] was greater than 100 µM and the TGI [50] was greater than 100 µM. For the same compound, the TGI [51] was greater than 100 µM, the TGI [52] was greater than 100 µM and the TGI [53] was greater than 100 µM. For the same compound, the TGI [54] was greater than 100 µM, the TGI [55] was greater than 100 µM and the TGI [56] was greater than 100 µM.

For `CC(C)OP(=O)(OC(C)C)C(C(C)C)N(C)C(N)=NC#N` (stereo not given), the TGI [1] was greater than 100 µM, the TGI [2] was greater than 100 µM and the TGI [3] was greater than 100 µM. The TGI [4] was greater than 100 µM, the TGI [5] was greater than 100 µM and the TGI [7] was greater than 100 µM. The TGI [8] was greater than 100 µM, the TGI [57] was greater than 100 µM and the TGI [9] was greater than 100 µM. The TGI [10] was greater than 100 µM, the TGI [11] was greater than 100 µM and the TGI [58] was greater than 100 µM. The TGI [12] was greater than 100 µM, the TGI [13] was greater than 100 µM and the TGI [14] was greater than 100 µM. The TGI [15] was greater than 100 µM, the TGI [16] was greater than 100 µM and the TGI [17] was greater than 100 µM. It also gave a TGI [18] greater than 100 µM, a TGI [19] greater than 100 µM and a TGI [20] greater than 100 µM. For the same compound, the TGI [21] was greater than 100 µM, the TGI [22] was greater than 100 µM and the TGI [23] was greater than 100 µM. The TGI [24] was greater than 100 µM, the TGI [25] was greater than 100 µM and the TGI [26] was greater than 100 µM. It also gave a TGI [27] greater than 100 µM, a TGI [28] greater than 100 µM and a TGI [29] greater than 100 µM. It also gave a TGI [30] greater than 100 µM, a TGI [31] greater than 100 µM and a TGI [32] greater than 100 µM. It also gave a TGI [33] greater than 100 µM, a TGI [34] greater than 100 µM and a TGI [35] greater than 100 µM. For the same compound, the TGI [36] was greater than 100 µM, the TGI [37] was greater than 100 µM and the TGI [38] was greater than 100 µM. It also gave a TGI [39] greater than 100 µM, a TGI [40] greater than 100 µM and a TGI [41] greater than 100 µM. It also gave a TGI [42] greater than 100 µM, a TGI [43] greater than 100 µM and a TGI [44] greater than 100 µM. The TGI [59] was greater than 100 µM, the TGI [45] was greater than 100 µM and the TGI [46] was greater than 100 µM. It also gave a TGI [47] greater than 100 µM, a TGI [48] greater than 100 µM and a TGI [50] greater than 100 µM. For the same compound, the TGI [51] was greater than 100 µM, the TGI [52] was greater than 100 µM and the TGI [53] was greater than 100 µM. It also gave a TGI [54] greater than 100 µM, a TGI [55] greater than 100 µM and a TGI [56] greater than 100 µM.
